Paper PMC3830718 (Toxicology and applied pharmacology, 2013)
Like-named read-outs stand apart in the source and are kept apart here.

Columns and labels:
[1] = assay type: in vivo, mice; details: mouse, kidney, intraperitoneal, 7.5 mg/kg, Metformin accumulation in the kidney
in vivo = details: mouse, AUC0–120min of metformin
mouse Oct2 (mOct2) = target: T1, mouse Oct2 (mOct2) (Mus musculus, UniProt O70577); assay: Inhibition of metformin accumulation in HEK-293 cells stably expressing mOct2; assay type: cell-based
T1 sequence (O70577 1-553): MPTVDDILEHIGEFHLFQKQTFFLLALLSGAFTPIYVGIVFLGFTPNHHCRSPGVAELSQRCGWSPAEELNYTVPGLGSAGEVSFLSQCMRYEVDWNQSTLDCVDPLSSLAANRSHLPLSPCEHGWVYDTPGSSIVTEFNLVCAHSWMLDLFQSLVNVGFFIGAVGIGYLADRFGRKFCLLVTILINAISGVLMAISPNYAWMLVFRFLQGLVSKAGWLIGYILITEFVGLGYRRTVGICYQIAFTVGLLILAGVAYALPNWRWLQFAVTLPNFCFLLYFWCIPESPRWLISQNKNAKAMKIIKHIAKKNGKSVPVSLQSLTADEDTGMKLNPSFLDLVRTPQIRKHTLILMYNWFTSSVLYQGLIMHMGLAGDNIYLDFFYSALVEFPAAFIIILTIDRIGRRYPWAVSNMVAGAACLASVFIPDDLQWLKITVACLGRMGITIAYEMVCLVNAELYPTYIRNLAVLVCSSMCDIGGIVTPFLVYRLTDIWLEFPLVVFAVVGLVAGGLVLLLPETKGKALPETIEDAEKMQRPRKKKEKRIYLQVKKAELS

mouse Mate1 (mMate1) = mouse Mate1 (mMate1) (Mus musculus, UniProt Q8K0H1); assay: Inhibition of metformin accumulation in HEK-293 cells stably expressing mMate1; assay type: cell-based
mouse Mate1 (mMate1), sequence (Q8K0H1 whole entry): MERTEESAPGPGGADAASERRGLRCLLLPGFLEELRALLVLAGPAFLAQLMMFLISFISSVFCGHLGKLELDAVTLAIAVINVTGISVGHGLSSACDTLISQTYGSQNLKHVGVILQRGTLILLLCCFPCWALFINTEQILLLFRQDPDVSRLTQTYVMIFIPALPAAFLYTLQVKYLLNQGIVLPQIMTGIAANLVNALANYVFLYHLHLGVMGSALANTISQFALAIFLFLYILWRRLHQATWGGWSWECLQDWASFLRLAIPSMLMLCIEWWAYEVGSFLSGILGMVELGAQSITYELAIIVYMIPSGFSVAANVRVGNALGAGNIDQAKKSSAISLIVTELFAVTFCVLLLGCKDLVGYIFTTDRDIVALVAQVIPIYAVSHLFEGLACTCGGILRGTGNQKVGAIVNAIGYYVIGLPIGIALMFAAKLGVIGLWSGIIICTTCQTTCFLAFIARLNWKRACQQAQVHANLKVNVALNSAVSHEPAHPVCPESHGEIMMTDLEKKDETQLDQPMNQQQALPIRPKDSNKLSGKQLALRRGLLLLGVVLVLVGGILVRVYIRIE

[2] = mouse, in vivo, 10 mg/kg

concentration at 30 min ([1]; Mate1−/− mice, saline (Fig. 4A)) | concentration at 30 min ([1]; wild-type mice, saline, genotype study (Fig. 4A)) | AUC(0-t) (in vivo) | Ki (mouse Oct2 (mOct2)) | Ki (mouse Mate1 (mMate1)) | Effect on hepatic platinum accumulation [2] | SMILES
917 ± 89.6 ng/g | 114 ± 21.8 ng/g | 2030 ng·h/mL | – | – | – | CN(C)C(=N)N=C(N)N [metformin]
– | – | – | 3500 nM | 70 nM | did not observe a significant effect | Cc1nccn1CC1CCc2c(c3ccccc3n2C)C1=O (stereo not drawn) [ondansetron]
